These results are taken from US20080207708A1, “Oxazole and Thiazole Compounds and Their Use in the Treatment of Pge2 Mediated Disorders” (GLAXO GROUP LIMITED, priority 2005, published 2008).

Counter-ions that a name gives are not always drawn.

The target in assay [1] is T1, EP1 receptors (Homo sapiens, UniProt P34995).
T1 sequence (P34995 1-402): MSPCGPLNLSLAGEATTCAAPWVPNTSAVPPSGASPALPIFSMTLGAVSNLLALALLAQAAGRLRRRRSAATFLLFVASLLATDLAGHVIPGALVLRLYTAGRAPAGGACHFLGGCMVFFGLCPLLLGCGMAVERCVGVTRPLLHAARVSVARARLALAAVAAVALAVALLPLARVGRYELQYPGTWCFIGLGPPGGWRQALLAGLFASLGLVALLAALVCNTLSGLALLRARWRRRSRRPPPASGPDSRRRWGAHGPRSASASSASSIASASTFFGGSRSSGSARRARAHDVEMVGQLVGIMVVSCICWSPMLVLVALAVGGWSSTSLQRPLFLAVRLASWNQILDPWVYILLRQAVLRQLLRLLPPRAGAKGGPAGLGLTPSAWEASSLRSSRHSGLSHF
The assay is described as follows: human EP1 calcium mobilisation assay (CHO-K1 cells, FLIPR, PGE2). Set-up: expressed in transfected cells; host or cells: CHO-K1 cells, pCIN vector. Conditions: free bases or sodium salts; averages of a number of experiments; read-out: functional pKi value, human EP1 calcium mobilisation assay (converted). In kind it is cell-based. The method in brief: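 CHO-K1 cells stably transfected with human EP1 cDNA, loaded with Fluo-4 AM after 24 h culture at 37° C. Compounds added first, then PGE2; antagonism read as inhibition of PGE2-induced intracellular calcium rise on FLIPR. pIC50 taken as concentration giving half-maximal inhibition, from curve fitting.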

Assay [2] has as its target T1, EP1 receptors. The assay is described as follows: Binding assay for the human prostanoid EP1 receptor (competition with [3H]-PGE2). Set-up: expressed in transfected cells; host or cells: CHO-K1 cells, membrane fraction. Conditions: [3H]-PGE2 competition; averages of a number of experiments; read-out: pIC50 value, binding assay for the human prostanoid EP1 receptor (converted). The method in brief: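 Membranes from CHO-K1 cells stably expressing human EP1 incubated with compounds and [3H]-PGE2 (3 nM final) for 30 min at 30° C in MES buffer with EDTA and MgCl2, pH 6. Bound radioactivity measured after filtration; IC50 from nonlinear fit of specific binding inhibition.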

On to `CC(C)COc1ccc(Cl)cc1Cc1nc(-c2nc3ccc(CCO)cc3[nH]2)cs1` [Example 154, 2-{2-[2-({5-Chloro-2-[(2-methylpropyl)oxy]phenyl}methyl)-1,3-thiazol-4-yl]-1H-benzimidazol-5-yl}ethanol], for which, on EP1 receptors [1], the Ki is not above 31.6 nM. Also, the IC50 on EP1 receptors [2] was not above 31.6 nM.
In the case of `CC(C)COc1ccc(Cl)cc1Cc1nc(-c2nc3cc(F)c(F)cc3[nH]2)cs1` [Example 155, 2-[2-({5-Chloro-2-[(2-methylpropyl)oxy]phenyl}methyl)-1,3-thiazol-4-yl]-5,6-difluoro-1H-benzimidazole], the Ki at EP1 receptors [1] is less than 1000 nM. The IC50 at EP1 receptors [2] is not above 1000 nM.
The corresponding values for `Cc1nnc(-c2csc(Cc3cc(Cl)ccc3OCC(C)C)n2)[nH]1` [Example 158, 3-[2-({5-Chloro-2-[(2-methyl-propyl)oxy]-phenyl}methyl)-1,3-thiazol-4-yl]-5-methyl-1H-1,2,4-triazole] are less than 1000 nM and not above 1000 nM.
The corresponding values for `Cc1nnc(-c2csc(Cc3cc(Cl)ccc3OCc3ccccc3)n2)[nH]1` [Example 159, 3-[2-({5-Chloro-2-[(phenylmethyl)oxy]phenyl}methyl)-1,3-thiazol-4-yl]-5-methyl-1H-1,2,4-triazole] are less than 1000 nM and not above 1000 nM.
The matching figures for `Clc1ccc(OCc2ccccc2)c(Cc2nc(-c3cn4ccccc4n3)cs2)c1` [Example 160, 2-[2-({5-Chloro-2-[(phenylmethyl)oxy]phenyl}methyl)-1,3-thiazol-4-yl]imidazo[1,2-a]pyridine]: less than 1000 nM and not above 1000 nM.
As to `CC(C)COc1ccc(Cl)cc1Nc1nc(-c2nc3ccccc3[nH]2)cs1` [Example 164, 4-(1H-Benzimidazol-2-yl)-N-{5-chloro-2-[(2-methylpropyl)oxy]phenyl}-1,3-thiazol-2-aminehydrochloride], the Ki at EP1 receptors [1] was less than 1000 nM. The IC50 on EP1 receptors [2] is not above 31.6 nM.
In the case of `CC(C)COc1ccc(Cl)cc1Nc1nc(-c2nc3ccc(N4CCN(C)CC4)cc3[nH]2)cs1` [Example 165, N-{5-Chloro-2-[(2-methylpropyl)oxy]phenyl}-4-[5-(4-methyl-1-piperazinyl)-1H-benzimidazol-2-yl]-1,3-thiazol-2-aminetrihydrochloride], the Ki at EP1 receptors [1] was more than 1000 nM. Besides, the IC50 on EP1 receptors [2] is not above 31.6 nM.
Turning to `CC(C)COc1ccc(Cl)cc1Cc1nc(-c2nc3ccc(CCN(C)C)cc3[nH]2)co1` [Example 166, (2-{2-[2-({5-Chloro-2-[(2-methylpropyl)oxy]phenyl}methyl)-1,3-oxazol-4-yl]-1H-benzimidazol-5-yl}ethyl)dimethylamine hydrochloride], on EP1 receptors [1], the Ki is less than 1000 nM. Moreover, the IC50 on EP1 receptors [2] is not above 31.6 nM.
`CC(C)COc1ccc(Cl)cc1Cc1nc(-c2nc3ccc(CCN4CCN(C)CC4)cc3[nH]2)co1` [Example 167, 2-[2-({5-chloro-2-[(2-methylpropyl)oxy]phenyl}methyl)-1,3-oxazol-4-yl]-5-[2-(4-methyl-1-piperazinyl)ethyl]-1H-benzimidazolehydrochloride]: on EP1 receptors [1], the Ki is less than 1000 nM. Further, the IC50 on EP1 receptors [2] was not above 31.6 nM.
The corresponding values for `CC(C)COc1ccc(Cl)cc1Cc1nc(-c2nc3ccc(CCN4CCCCC4)cc3[nH]2)co1` [Example 168, 2-[2-({5-chloro-2-[(2-methylpropyl)oxy]phenyl}methyl)-1,3-oxazol-4-yl]-5-[2-(1-piperidinyl)ethyl]-1H-benzimidazolehydrochloride] are less than 1000 nM and not above 31.6 nM.
`CC(C)COc1ccc(Cl)cc1Cc1nc(-c2nc3ccc(CCN4CCCC4)cc3[nH]2)co1` [Example 169, 2-[2-({5-chloro-2-[(2-methylpropyl)oxy]phenyl}methyl)-1,3-oxazol-4-yl]-5-[2-(1-pyrrolidinyl)ethyl]-1H-benzimidazolehydrochloride]: the Ki on EP1 receptors [1] was less than 1000 nM. Moreover, the IC50 at EP1 receptors [2] is not above 31.6 nM.
As for `CN(C)Cc1ccc2nc(-c3coc(Cc4cc(Cl)ccc4OCc4ccccc4)n3)[nH]c2c1` [Example 170, ({2-[2-({5-chloro-2-[(phenylmethyl)oxy]phenyl}-methyl)-1,3-oxazol-4-yl]-1H-benzimidazol-5-yl}methyl)dimethylaminehydrochloride], the Ki on EP1 receptors [1] is less than 1000 nM. Further, the IC50 on EP1 receptors [2] was not above 1000 nM.
Consider `CN1CCN(Cc2ccc3nc(-c4coc(Cc5cc(Cl)ccc5OCc5ccccc5)n4)[nH]c3c2)CC1` [Example 171, 2-[2-({5-chloro-2-[(phenylmethyl)oxy]phenyl}-methyl)-1,3-oxazol-4-yl]-5-[(4-methyl-1-piperazinyl)methyl]-1H-benzimidazolehydrochloride], for which, on EP1 receptors [1], the Ki is less than 1000 nM. For the same compound, the IC50 at EP1 receptors [2] was not above 1000 nM.
The matching figures for `Clc1ccc(OCc2ccccc2)c(Cc2nc(-c3nc4ccc(CN5CCCCC5)cc4[nH]3)co2)c1` [Example 172, 2-[2-({5-chloro-2-[(phenylmethyl)oxy]phenyl}-methyl)-1,3-oxazol-4-yl]-5-(1-piperidinylmethyl)-1H-benzimidazolehydrochloride]: less than 1000 nM and not above 1000 nM.
Take `Clc1ccc(OCc2ccccc2)c(Cc2nc(-c3nc4ccc(CN5CCCC5)cc4[nH]3)co2)c1` [Example 173, 2-[2-({5-chloro-2-[(phenylmethyl)oxy]phenyl}-methyl)-1,3-oxazol-4-yl]-5-(1-pyrrolidinylmethyl)-1H-benzimidazolehydrochloride]: the Ki on EP1 receptors [1] is less than 1000 nM. The IC50 on EP1 receptors [2] is not above 1000 nM.
The corresponding values for `CNCc1ccc2nc(-c3coc(Cc4cc(Cl)ccc4OCC(C)C)n3)[nH]c2c1` [Example 174, ({2-[2-({5-Chloro-2-[(2-methylpropyl)oxy]phenyl}methyl)-1,3-oxazol-4-yl]-1H-benzimidazol-5-yl}methyl)methylaminedihydrochloride] are less than 1000 nM and not above 31.6 nM.
Regarding `CC(C)COc1ccc(Cl)cc1Cc1nc(-c2nc3ccc(CN(C)C)cc3[nH]2)co1` [Example 175, ({2-[2-({5-Chloro-2-[(2-methylpropyl)oxy]phenyl}methyl)-1,3-oxazol-4-yl]-1H-benzimidazol-5-yl}methyl)dimethylaminedihydrochloride], the Ki at EP1 receptors [1] was less than 1000 nM. In addition, the IC50 at EP1 receptors [2] is not above 31.6 nM.
Consider `CC(C)COc1ccc(Cl)cc1Cc1nc(-c2nc3ccc(CN4CCCC4)cc3[nH]2)co1` [Example 176, 2-[2-({5-chloro-2-[(2-methylpropyl)oxy]phenyl}methyl)-1,3-oxazol-4-yl]-5-(1-pyrrolidinylmethyl)-1H-benzimidazoledihydrochloride], for which, at EP1 receptors [1], the Ki is less than 1000 nM. The IC50 at EP1 receptors [2] was not above 31.6 nM.
Consider `CC(C)COc1ccc(Cl)cc1Cc1nc(-c2nc3ccc(CN4CCCCC4)cc3[nH]2)co1` [Example 177, 2-[2-({5-chloro-2-[(2-methylpropyl)oxy]phenyl}methyl)-1,3-oxazol-4-yl]-5-(1-piperidinylmethyl)-1H-benzimidazoledihydrochloride], for which the Ki at EP1 receptors [1] was less than 1000 nM. Besides, the IC50 on EP1 receptors [2] is not above 31.6 nM.
The corresponding values for `CC(C)COc1ccc(Cl)cc1Cc1nc(-c2nc3ccc(CN4CCN(C)CC4)cc3[nH]2)co1` [Example 178, 2-[2-({5-Chloro-2-[(2-methylpropyl)oxy]phenyl}methyl)-1,3-oxazol-4-yl]-5-[(4-methyl-1-piperazinyl)methyl]-1H-benzimidazoletrihydrochloride] are less than 1000 nM and not above 31.6 nM.
As to `CNCc1ccc2nc(-c3csc(Nc4cc(Cl)ccc4OCC(C)C)n3)[nH]c2c1` [Example 179, N-{5-Chloro-2-[2-methylpropyl)oxy]phenyl}-4-{5-[(methylamino)methyl]-1H-benzimidazol-2-yl}-1,3-thiazol-2-amine hydrochloride], the Ki at EP1 receptors [1] is more than 1000 nM. For the same compound, on EP1 receptors [2], the IC50 is not above 31.6 nM.
In the case of `CC(C)COc1ccc(Cl)cc1Nc1nc(-c2nc3ccc(CN(C)C)cc3[nH]2)cs1` [Example 180, N-{5-Chloro-2-[(2-methylpropyl)oxy]phenyl}-4-{5-[(dimethylamino)methyl]-1H-benzimidazol-2-yl}-1,3-thiazol-2-aminehydrochloride], the Ki on EP1 receptors [1] was more than 1000 nM. Besides, the IC50 at EP1 receptors [2] was not above 31.6 nM.
Regarding `CC(C)COc1ccc(Cl)cc1Nc1nc(-c2nc3ccc(CN4CCCC4)cc3[nH]2)cs1` [Example 181, N-{5-Chloro-2-[(2-methylpropyl)oxy]phenyl)-4-[5-(1-pyrrolidinylmethyl)-1H-benzimidazol-2-yl]-1,3-thiazol-2-amine], the Ki at EP1 receptors [1] is more than 1000 nM. The IC50 at EP1 receptors [2] was not above 1000 nM.
The corresponding values for `CC(C)COc1ccc(Cl)cc1Nc1nc(-c2nc3ccc(CN4CCCCC4)cc3[nH]2)cs1` [Example 182, N-{5-Chloro-2-[(2-methylpropyl)oxy]phenyl}-4-[5-(1-piperidinylmethyl)-1H-benzimidazol-2-yl]-1,3-thiazol-2-amine] are more than 1000 nM and not above 1000 nM.
